Article PMC10401570, “Programmable Monodisperse Glyco-Multivalency Using Self-Assembled Coordination Cages as Scaffolds” (ACS Applied Materials & Interfaces, 2023)

Target: Jacalin (Artocarpus integer, UniProt P18670)
Experiment: competition turbidimetry: free galactose blocks lectin aggregation by galactose cage Co4Gal ([…] against Co8Gal)
Type: binding

Chain of Jacalin (P18670 whole entry): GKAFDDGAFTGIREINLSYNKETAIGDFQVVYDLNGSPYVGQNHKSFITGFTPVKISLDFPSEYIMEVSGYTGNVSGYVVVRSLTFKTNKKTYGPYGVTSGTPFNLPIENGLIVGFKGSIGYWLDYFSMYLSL
Chain of Jacalin (P18671 whole entry partner): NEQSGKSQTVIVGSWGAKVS

OC[C@H]1OC(O)[C@H](O)[C@@H](O)[C@H]1O (stereo partly drawn) [D-galactose]
IC50: 30 mM
